Measurements taken from paper PMC4884984, “Identification of approved and investigational drugs that inhibit hypoxia-inducible factor-1 signaling” (Oncotarget, 2016).
Where two headings read alike, the source gives them in different places. One block for each molecule: values may come before it.

Assays:
[1] = system: HIF-1α–NanoLuc; assay: HIF-1α–NanoLuc reporter gene assay (qHTS primary and confirmatory screens); format: cell-based, human; details: Homo sapiens
[2] = system: hypoxia response element-beta-lactamase (HRE–bla); assay: HRE-bla reporter gene assay in ME-180 cells; format: cell-based, human; details: Homo sapiens
[3] = system: HIF-1α–NanoLuc HCT116 cells; assay: Viability (Luc): CellTiter-Glo counter screen in HIF-1α–NanoLuc cells; format: cell-based, human; details: Table S7, 1% O2, 18 h
[4] = system: HRE–bla ME-180 cells; assay: Viability (BLA): CellTiter-Glo counter screen in HRE–bla cells; format: cell-based, human; details: for IC50: 1% O2, 18 h; for Viability (BLA) confirmatory IC50: Table S7, 1% O2, 18 h
[5] = system: HCT116 cells; assay: Cancer cell proliferation assay, HCT116; format: cell-based, human; details: for Emax / IC50: Homo sapiens; for Emax: read-out: HCT116 3-Day Viability Efficacy
[6] = system: ME-180 cells; assay: Cancer cell proliferation assay, ME-180; format: cell-based; details: Homo sapiens; for Emax: read-out: ME-180 3-Day Viability Efficacy
[7] = system: co-cultures of human aortic endothelial cells and human mesenchymal stem cells; assay: In vitro angiogenesis co-culture assay (tube formation); format: cell-based; details: Homo sapiens, 72 h, Table 1, three-day exposure; for IC50: tube formation; for Emax: percentage of inhibition compared to DMSO controls, read-out: Angiogenesis Efficacy (converted)
[8] = Table S2, validation, read-out: Pathway inhibitors (validation) HIF-1α–NanoLuc Activity Efficacy
[9] = Table S2, validation, read-out: Pathway inhibitors (validation) HIF-1α–NanoLuc Activity IC50
[10] = Table S7, confirmatory screen, read-out: HIF-1α–NanoLuc confirmatory Efficacy
[11] = ME-180, Table S7, confirmatory screen, read-out: HRE–bla confirmatory Efficacy
[12] = ME-180, Table S7, confirmatory screen, read-out: HRE–bla confirmatory IC50
[13] = Homo sapiens, ME-180, Table S7, confirmatory screen
[14] = HCT-116, 72 h, Table S8, 3 days
[15] = HCT-116, 72 h, Table S8, 3 days, read-out: HCT116 3-Day Viability IC50
[16] = ME-180, 72 h, Table S8, 3 days, read-out: ME-180 3-Day Viability IC50
[17] = ME-180, Table 1, percentage of inhibition compared to DMSO controls, read-out: HRE-bla Efficacy (converted)
[18] = Table 1, ME-180 cells, 1% O2, 18 h, read-out: HRE-bla IC50
[19] = HCT-116, Table 1, 72 h, read-out: 72-hr Viability HCT116 IC50
[20] = ME-180, Table 1, 72 h, read-out: 72-hr Viability ME-180 IC50
[21] = 18 h, read-out: IC50 (primary screen, HIF-1α–NanoLuc assay)
[22] = read-out: Efficacy (primary screen, HIF-1α–NanoLuc assay)
[23] = read-out: HIF-1α–NanoLuc confirmatory Efficacy
[24] = read-out: HIF-1α–NanoLuc confirmatory IC50
[25] = read-out: HIF-1α–NanoLuc primary Efficacy

SMILES: O=c1cc(N2CCOCC2)oc2c(-c3ccccc3)cccc12 [LY-294002]
Emax [1, 8]: 50 ± 9%
IC50 [1, 9]: 14600 ± 3540 nM
Emax [1, 10]: 50 ± 9%
Emax [2, 11]: 35 ± 8%
IC50 [2, 12]: 12000 ± 2250 nM
Viability (Luc) confirmatory IC50 [3]: Inactive
Viability (BLA) confirmatory IC50 [4]: Inactive
HCT116 3-Day Viability IC50 ([5]; Table S8, 3 days): Inactive
Emax ([6]; ME-180, 72 h, Table S8, 3 days): 73 ± 4%
IC50 [6, 16]: 15400 ± 1040 nM

SMILES: O=C1c2c(O)ccc(O)c2C(=O)c2c(NCCNCCO)ccc(NCCNCCO)c21 [Mitoxantrone]
IC50 ([1]; HCT-116, Table 1, HCT116 reporter cells, hypoxia 1% O2, 18 h, confirmatory, read-out: HIF-1α-NanoLuc IC50): 7650 ± 2130 nM
Emax ([1]; Table 1, percentage of inhibition compared to DMSO controls, read-out: HIF-1α-NanoLuc Efficacy (converted)): 110%
IC50 ([1]; Table S1, primary screen, hypoxia 1% O2, 18 h, read-out: IC50 (primary screen, HIF-1α–NanoLuc assay)): 2380 nM
Emax ([1]; Table S1, primary screen, read-out: Efficacy (primary screen, HIF-1α–NanoLuc assay)): 80%
Emax ([1]; Table S2, primary screen, read-out: Pathway inhibitors (primary screen) HIF-1α–NanoLuc Activity Efficacy): 80%
IC50 ([1]; Table S2, primary screen, read-out: Pathway inhibitors (primary screen) HIF-1α–NanoLuc Activity IC50): 2370 nM
Emax [1, 8]: 110 ± 5%
Emax [1, 10]: 110 ± 5%
Emax ([1]; Table S7, primary screen, read-out: HIF-1α–NanoLuc primary Efficacy): 80%
Emax [2, 17]: 99%
Emax [2, 11]: 99 ± 10%
IC50 [2, 18]: 860 ± 520 nM
Viability (Luc) confirmatory IC50 [3]: Inactive
IC50 [4, 13]: 13400 ± 4400 nM
IC50 [5, 19]: 11100 ± 4790 nM
IC50 [6, 20]: 110 ± 30 nM
IC50 [7]: 4 ± 3 nM
Emax [7]: 101%

SMILES: CC[C@@]1(O)C(=O)OCc2c1cc1n(c2=O)Cc2cc3ccccc3nc2-1 [Camptothecin]
Emax [2, 17]: 84%
Emax [2, 11]: 84 ± 1%
IC50 [2, 18]: 200 ± 60 nM
Viability (BLA) confirmatory IC50 [4]: Inactive
IC50 [5, 19]: 1000 ± 290 nM
IC50 [6, 20]: 40 nM
IC50 [7]: 0.27 ± 0.31 nM
Emax [7]: 134%

SMILES: C[C@H]1O[C@@H](O[C@H]2CC[C@@]3(C)[C@H](CC[C@@H]4[C@@H]3C[C@@H](O)[C@]3(C)[C@@H](C5=CC(=O)OC5)CC[C@]43O)C2)C[C@H](O)[C@@H]1O[C@H]1C[C@H](O)[C@H](O[C@H]2C[C@H](O)[C@H](O[C@@H]3O[C@H](CO)[C@@H](O)[C@H](O)[C@H]3O)[C@@H](C)O2)[C@@H](C)O1 [Deslanoside]
IC50 [1, 21]: 300 nM
Emax [1, 22]: 115%
Emax [1, 23]: 108 ± 9%
IC50 [1, 24]: 390 ± 30 nM
Emax [1, 25]: 115%
Emax [2, 11]: 102 ± 3%
IC50 [2, 12]: 160 ± 30 nM
Viability (Luc) confirmatory IC50 [3]: Inactive
IC50 [4, 13]: 320 ± 90 nM
Emax [5, 14]: 63 ± 8%
IC50 [5, 15]: 2590 ± 2870 nM
Emax ([6]; ME-180, 72 h, Table S8, 3 days): 97 ± 3%
IC50 [6, 16]: 310 ± 40 nM

SMILES: C[C@H]1O[C@@H](O[C@H]2[C@@H](O)C[C@H](O[C@H]3[C@@H](O)C[C@H](O[C@H]4CC[C@@]5(C)[C@H](CC[C@@H]6[C@@H]5CC[C@]5(C)[C@@H](C7=CC(=O)OC7)CC[C@]65O)C4)O[C@@H]3C)O[C@@H]2C)C[C@H](O)[C@@H]1O [Digitoxin]
IC50 [1, 21]: 30 nM
Emax [1, 22]: 124%
Emax [1, 23]: 101 ± 1%
IC50 [1, 24]: 110 ± 10 nM
Emax [1, 25]: 124%
Emax [2, 11]: 97%
IC50 [2, 12]: 30 ± 10 nM
Viability (Luc) confirmatory IC50 [3]: Inactive
IC50 [4, 13]: 90 ± 30 nM
Emax [5, 14]: 97 ± 8%
IC50 [5, 15]: 2290 ± 3130 nM
Emax ([6]; ME-180, 72 h, Table S8, 3 days): 101 ± 4%
IC50 [6, 16]: 90 ± 20 nM

More lines, main results first:

IC50 [1, 9]: 13600 ± 6380 nM
IC50 [2, 12]: 4100 ± 700 nM
IC50 [5, 15]: 31800 ± 9410 nM
IC50 [6, 16]: 14400 ± 1970 nM
SMILES: CCCS(=O)(=O)Nc1ccc(F)c(C(=O)c2c[nH]c3ncc(-c4ccc(Cl)cc4)cc23)c1F [Vemurafenib]
Emax [1, 8]: 66 ± 6%
Emax [1, 10]: 66 ± 6%
Emax [2, 11]: 75 ± 11%
Viability (Luc) confirmatory IC50 [3]: Inactive
IC50 [4, 13]: 16000 ± 8130 nM
Emax ([4]; Homo sapiens, ME-180, Table S7, confirmatory screen, read-out: Viability (BLA) confirmatory Efficacy): 27 ± 10%
Emax [5, 14]: 63 ± 4%
Emax ([6]; ME-180, 72 h, Table S8, 3 days): 92 ± 5%

IC50 [2, 18]: 620 ± 380 nM
IC50 [5, 19]: 4300 ± 1200 nM
IC50 [6, 20]: 100 ± 10 nM
IC50 [7]: 10 nM
SMILES: CC[C@@]1(O)C(=O)OCc2c1cc1n(c2=O)Cc2cc3c(CN(C)C)c(O)ccc3nc2-1 [Topotecan]
Emax [2, 17]: 131%
Emax [2, 11]: 131 ± 9%
Viability (BLA) confirmatory IC50 [4]: Inactive
Emax [7]: 80%

IC50 [2, 12]: 1670 ± 460 nM
IC50 [2, 18]: 230 ± 50 nM
IC50 [6, 20]: 2040 nM
IC50 [7]: 40 ± 30 nM
SMILES: O=C(Nc1ccc([N+](=O)[O-])cc1Cl)c1cc(Cl)ccc1O [Niclosamide]
Emax [2, 17]: 91%
Emax [2, 11]: 84 ± 6%
IC50 [4, 13]: 1630 ± 2580 nM
Emax [5, 14]: 83 ± 6%
Emax [7]: 87%
